# “Also recorded” adds a separate entry of the source.
# How the values were obtained:
# [1] = test system: carrageenan-based footpad-edema model; assay: Carrageenan footpad edema model, local injection 48 h post carrageenan; assay type: in vivo, mice; conditions: 30 μl, injected 48 h post carrageenan; for subsequent footpad swelling after local injection: 2 mM
# Experimental: (§1) Mice Carrageenan Footpad Edema Model. Carrageenan (C1867, Sigma-Aldrich®, 2% in PBS, 30 μl) was injected into the right footpad while PBS (30 μl) was injected in the left footpad as a negative control. For preliminary testing of CFZ as an anti-inflammatory agent, 8-week orally fed mice (CFZ and control) were used. For testing of CFZ in soluble and microcrystal form, naïve 4-5 week old mice were injected with carrageenan first followed by injection of CFZ-A (2 mM in DMSO, 30 μl), CLDIs (2 mM equivalent in PBS, 30 μl) or CFZ-HCl (2 mM equivalent in PBS, 30 μl) at 48 h post carrageenan injection. For control experiments, CFZ-A, CLDIs and CFZ-HCl were injected into the right footpads of naïve 4-5 week old mice. DMSO was used as a control for CFZ-A in the left footpad whereas PBS was used as a control for CLDIs and CFZ-HCl. Footpads were measured (length—l, width—w, three thicknesses—t1, t2, t3) at various time points using a digital vernier calliper and changes in the swelling based on volume of the foot was calculated as per above.
# [2] = test system: footpad swelling; assay: Footpad injections alone in naïve mice; assay type: in vivo; conditions: 2 mM, 30 μl
# Experimental: as §1
SMILES,footpad swelling inhibition beyond 24 h post therapy ([1]; 2 mM equivalent),subsequent footpad swelling after local injection [1],inflammation/swelling after injection alone [2]
CC(C)N=c1cc2n(-c3ccc(Cl)cc3)c3ccccc3nc-2cc1Nc1ccc(Cl)cc1.Cl [CFZ-HCl],sustained for a further 24 h,inhibited for 24 h post therapy,did not induce any measurable inflammation; also recorded: no signs of swelling
CC(C)N=c1cc2n(-c3ccc(Cl)cc3)c3ccccc3nc-2cc1Nc1ccc(Cl)cc1.Cl [CFZ-A],,did not lead to a measurable anti-inflammatory response,measurable inflammatory response initially; also recorded: some swelling

# — patent US20160220710A1, “COMPOSITIONS AND METHODS FOR DELIVERING PHARMACEUTICAL AGENTS” (THE REGENTS OF THE UNIVERSITY OF MICHIGAN, priority 2015, published 2016)
